Test results reported in patent publication US20170304177A1, “USE OF ISOSORBIDE ESTER AND N-ACYLATED AMINO ACID DERIVATIVES AS ANTI-AGEING AGENT FOR THE HUMAN SKIN” (SOCIETE D'EXPLOITATION DE PRODUITS POUR LES INDUSTRIES …, priority 2014, published 2017).

Test system: Normal human fibroblasts
Assay: In vitro migration of normal human fibroblasts (Oris migration plates, mitomycin C pretreatment, 40 h incubation, Calcein AM labelling)
Type: cell-based
Settings: for (Dmigr) mean migration distance of the cells: 40 h, mean ± SD of quadruplicates; for [(Dmigr) − (Dmigr)control]/(Dmigr)control, percentage of migratory effect relative to the control: vs FCS culture control
Text: The fibroblast migration test is a test commonly used in the cosmetics and pharmaceutical sector and is especially described in the international patent application published under the number WO 2010/056908 A1. It allows in vitro reproduction of the phenomenon of fibroblast migration; a decrease in the migratory capacities of the fibroblasts being reported as associated with aging of the skin (1) (4).
Normal human fibroblasts at the R5 passage were amplified in a T75 culture flask and then inoculated at 25 000 cells/well in specific culture plates. These plates are dedicated to migration (Oris™ from Platypus), integrating a central zone without initial deposition of cells (stoppers). After 96 hours of plate amplification and 2 hours before the treatment, all the wells were treated with mitomycin C (2 hours at 10 μg/ml), so as to stop the cell proliferation, and thus to observe only the migration phenomenon. The stoppers were removed, and the references, the products or standard medium for fibroblasts containing 2% fetal calf serum (FCS) were applied to the cells under 100 μl, and then incubated for 40 hours at 37° C. under 5% CO2. Each condition was performed in quadruplicate.
On conclusion of the incubation, the cells were labeled with Calcein AM (5 μM, 20 minutes at 37° C.), so as to visualize the viable cells by fluorescence (revelation of the cytoplasm). Photos were taken, after having inserted a black screen under the culture plates, so as to visualize only the zone where the cells were not deposited. Thus, only the cells which had migrated were photographed (×4 objective lens; with a ×0.7 reducer on the camera adapter). The mean migration distance of the cells (Dmigr) was measured with NIS-Elements-BR 3.0 (4 cells). The means and standard deviations of the distances were calculated on the quadruplicates. The percentages of migratory effect relative to the control, and also the statistics (Student test) were also calculated.

For Epidermal Growth Factor (EGF), which “(Dmigr) mean migration distance of the cells” value (EGF 10 ng/ml) is on record?
Its value is 203 ± 20 μm.

And the “[(Dmigr) − (Dmigr)control]/(Dmigr)control, percentage of migratory effect relative to the control” value (EGF 10 ng/ml)?
Its value is “+21%”.

And the “(Dmigr) mean migration distance of the cells” value (EGF 50 ng/ml)?
The value was 212 ± 8 μm.

And the “[(Dmigr) − (Dmigr)control]/(Dmigr)control, percentage of migratory effect relative to the control” value (EGF 50 ng/ml)?
The value was “+26%”.

What about the “Effect on migration distance of normal human fibroblasts (in words)” value (summary statement on Table 1, EGF at 10 and 50 ng/ml, compositions at 5 and 10 μg/ml) of the same substance?
Its value is “increase in the migration distance”.
